Experiment [1] deals with HL-60. In words: Growth inhibition of human HL60 cells at 1 uM after 3 days. The format is functional. Conditions: HL-60, 72 h.
The subject of experiment [2] is HL-60. As to the kind of experiment: Growth inhibition of human HL60 cells at 10 uM after 3 days. The experiment is classed as functional. Conditions: HL-60, 72 h.

Molecules are shown by their SMILES.

`CCOCCCN[C@H]1C[C@@]2(C)[C@@H](CC[C@@H]3[C@@H]2CC[C@]2(C)[C@@H](O)CC[C@@H]32)C[C@@H]1O` came in with an inhibition at 1 µM with HL-60 [1] of 0%. In the experiment with HL-60 [2], this compound gave an inhibition at 10 µM of 10.8%.
The corresponding values for `CCCCCCCCCCCCCCCCN[C@H]1C[C@@]2(C)[C@@H](CC[C@@H]3[C@@H]2CC[C@]2(C)[C@@H](O)CC[C@@H]32)C[C@@H]1O` are 0% and 94.8%.
The like results for `CCN(CC)[C@H]1C[C@@]2(C)[C@@H](CC[C@@H]3[C@@H]2CC[C@]2(C)[C@@H](O)CC[C@@H]32)C[C@@H]1O` were, in that order, 0% and 6.7%.
Take `C[C@]12C[C@H](NC3CCCCCC3)[C@@H](O)C[C@@H]1CC[C@@H]1[C@@H]2CC[C@]2(C)[C@@H](O)CC[C@@H]12`: at 1 µM the inhibition in the experiment with HL-60 [1] was 0%. This compound showed an inhibition at 10 µM in the experiment on HL-60 [2] of 0%.
In the experiment on HL-60 [1], `C[C@]12C[C@H](N3CCN(c4ccccc4)CC3)[C@@H](O)C[C@@H]1CC[C@@H]1[C@@H]2CC[C@]2(C)[C@@H](O)CC[C@@H]12` registered an inhibition at 1 µM of 7%. This compound had an inhibition at 10 µM in the experiment on HL-60 [2] of 36.6%.
In turn, `CCCCCCCCCCCN[C@H]1C[C@@]2(C)[C@@H](CC[C@@H]3[C@@H]2CC[C@]2(C)[C@@H](O)CC[C@@H]32)C[C@@H]1O` gave an inhibition at 1 µM in the experiment with HL-60 [1] of 0%. In the experiment on HL-60 [2], this compound displayed an inhibition at 10 µM of 96.3%.
Consider `CCC(=O)N1CCN([C@H]2C[C@@]3(C)[C@@H](CC[C@@H]4[C@@H]3CC[C@]3(C)[C@@H](O)CC[C@@H]43)C[C@@H]2O)CC1`, for which the inhibition at 1 µM in the experiment with HL-60 [1] stood at 0%. This compound also gave an inhibition at 10 µM in the experiment on HL-60 [2] of 0%.
`C[C@]12C[C@H](N3CCC(N4CCCCC4)CC3)[C@@H](O)C[C@@H]1CC[C@@H]1[C@@H]2CC[C@]2(C)[C@@H](O)CC[C@@H]12` displayed an inhibition at 1 µM in the experiment with HL-60 [1] of 0%. This compound had an inhibition at 10 µM in the experiment on HL-60 [2] of 77.8%.
The like results for `CCCCCCCCCN[C@H]1C[C@@]2(C)[C@@H](CC[C@@H]3[C@@H]2CC[C@]2(C)[C@@H](O)CC[C@@H]32)C[C@@H]1O` were, in that order, 3.9% and 89.9%.
The corresponding values for `CC(C)CN[C@H]1C[C@@]2(C)[C@@H](CC[C@@H]3[C@@H]2CC[C@]2(C)[C@@H](O)CC[C@@H]32)C[C@@H]1O` are 0% and 0%.
The like results for `CC(C)(C)N[C@H]1C[C@@]2(C)[C@@H](CC[C@@H]3[C@@H]2CC[C@]2(C)[C@@H](O)CC[C@@H]32)C[C@@H]1O` were, in that order, 0% and 0.5%.
In turn, `C[C@]12C[C@H](N3CCCCC3)[C@@H](O)C[C@@H]1CC[C@@H]1[C@@H]2CC[C@]2(C)[C@@H](O)CC[C@@H]12` returned an inhibition at 1 µM in the experiment on HL-60 [1] of 0%. This compound also returned an inhibition at 10 µM with HL-60 [2] of 1.5%.
The like results for `CN1CCN([C@H]2C[C@@]3(C)[C@@H](CC[C@@H]4[C@@H]3CC[C@]3(C)[C@@H](O)CC[C@@H]43)C[C@@H]2O)CC1` were, in that order, 0% and 16.2%.
The corresponding values for `CC(C)CCN[C@H]1C[C@@]2(C)[C@@H](CC[C@@H]3[C@@H]2CC[C@]2(C)[C@@H](O)CC[C@@H]32)C[C@@H]1O` are 0% and 3%.
The like results for `CC(C)N[C@H]1C[C@@]2(C)[C@@H](CC[C@@H]3[C@@H]2CC[C@]2(C)[C@@H](O)CC[C@@H]32)C[C@@H]1O` were, in that order, 0% and 0%.
Consider `C[C@]12C[C@H](N3CCCNCC3)[C@@H](O)C[C@@H]1CC[C@@H]1[C@@H]2CC[C@]2(C)[C@@H](O)CC[C@@H]12`, for which the inhibition at 1 µM in the experiment with HL-60 [1] was determined as 1%. Further, testing at 10 µM in the experiment on HL-60 [2] gave an inhibition of 21.4%.
In turn, `C[C@]12C[C@H](N3CCN(Cc4ccccc4)CC3)[C@@H](O)C[C@@H]1CC[C@@H]1[C@@H]2CC[C@]2(C)[C@@H](O)CC[C@@H]12` gave an inhibition at 1 µM with HL-60 [1] of 0%. In addition, the inhibition at 10 µM with HL-60 [2] came out at 25.7%.
The corresponding values for `CCCC(C)N1CCN([C@H]2C[C@@]3(C)[C@@H](CC[C@@H]4[C@@H]3CC[C@]3(C)[C@@H](O)CC[C@@H]43)C[C@@H]2O)CC1` (stereo not given in full) are 0% and 9.2%.
Take `CC(C)CN1CCN([C@H]2C[C@@]3(C)[C@@H](CC[C@@H]4[C@@H]3CC[C@]3(C)[C@@H](O)CC[C@@H]43)C[C@@H]2O)CC1`: in the experiment on HL-60 [1], the inhibition at 1 µM came out at 0%. This compound yielded an inhibition at 10 µM in the experiment on HL-60 [2] of 5%.
The like results for `CC(C)(C)CN[C@H]1C[C@@]2(C)[C@@H](CC[C@@H]3[C@@H]2CC[C@]2(C)[C@@H](O)CC[C@@H]32)C[C@@H]1O` were, in that order, 0% and 3.3%.
With `CC(C)C(=O)N1CCN([C@H]2C[C@@]3(C)[C@@H](CC[C@@H]4[C@@H]3CC[C@]3(C)[C@@H](O)CC[C@@H]43)C[C@@H]2O)CC1`, the inhibition at 1 µM in the experiment with HL-60 [1] came to 0%. For the same compound, 10 µM produced 1.1% inhibition with HL-60 [2].
On to `CCCCCCN[C@H]1C[C@@]2(C)[C@@H](CC[C@@H]3[C@@H]2CC[C@]2(C)[C@@H](O)CC[C@@H]32)C[C@@H]1O`, for which the inhibition at 1 µM with HL-60 [1] worked out at 0%. In the experiment on HL-60 [2], this compound displayed an inhibition at 10 µM of 6.9%.
The like results for `C[C@]12C[C@H](N3CCC(Cc4ccccc4)CC3)[C@@H](O)C[C@@H]1CC[C@@H]1[C@@H]2CC[C@]2(C)[C@@H](O)CC[C@@H]12` were, in that order, 9.9% and 57.9%.
The like results for `C[C@]12C[C@H](N3CCN(c4ccc([N+](=O)[O-])cc4)CC3)[C@@H](O)C[C@@H]1CC[C@@H]1[C@@H]2CC[C@]2(C)[C@@H](O)CC[C@@H]12` were, in that order, 12.5% and 92.2%.
The like results for `CCCCN1CCN([C@H]2C[C@@]3(C)[C@@H](CC[C@@H]4[C@@H]3CC[C@]3(C)[C@@H](O)CC[C@@H]43)C[C@@H]2O)CC1` were, in that order, 0% and 7.6%.
As for `C[C@]12C[C@H](C3NCCc4ccccc43)[C@@H](O)C[C@@H]1CC[C@@H]1[C@@H]2CC[C@]2(C)[C@@H](O)CC[C@@H]12` (stereo not given in full), in the experiment with HL-60 [1], the inhibition at 1 µM worked out at 3.4%. Also, the inhibition at 10 µM with HL-60 [2] came out at 29.6%.
For `C[C@]12C[C@H](N3CCN(C(=O)c4ccccc4)CC3)[C@@H](O)C[C@@H]1CC[C@@H]1[C@@H]2CC[C@]2(C)[C@@H](O)CC[C@@H]12`, the inhibition at 1 µM in the experiment on HL-60 [1] was determined as 0%. Further, in the experiment on HL-60 [2], the inhibition at 10 µM was 11.4%.
The like results for `C[C@]12C[C@H](N3CCCCCC3)[C@@H](O)C[C@@H]1CC[C@@H]1[C@@H]2CC[C@]2(C)[C@@H](O)CC[C@@H]12` were, in that order, 0% and 3.4%.
The corresponding values for `C[C@]12C[C@H](NCC34CC5CC(CC(C5)C3)C4)[C@@H](O)C[C@@H]1CC[C@@H]1[C@@H]2CC[C@]2(C)[C@@H](O)CC[C@@H]12` are 6.4% and 85.8%.
The like results for `CCCCCN[C@H]1C[C@@]2(C)[C@@H](CC[C@@H]3[C@@H]2CC[C@]2(C)[C@@H](O)CC[C@@H]32)C[C@@H]1O` were, in that order, 0% and 0%.

The values above are taken from ChEMBL document CHEMBL1157187, “Chemical synthesis of 2beta-amino-5alpha-androstane-3alpha,17beta-diol N-derivatives and their antiproliferative effect on HL-60 human leukemia cells” (Bioorg Med Chem, 2008).
